Consider three molecules from patent US12064444B2, “Application of tannic acid in preparation of medicament against respiratory viruses” (priority 2020, dated 2024).

SMILES strings stand for the structures. Like-named read-outs stand apart in the source and are kept apart here.

The nature of series [1]: Toxicity to canine kidney epithelial cells (MDCK), cytopathic changes. The following applies: dog. The method, then:
(§1) 2. […] The maximum non-toxic concentration (TC0) of the medicament was taken as the minimum dilution times of the medicament without cytopathic changes, and the median toxic concentration (TC50) of the medicament was calculated by the Reed-Muench formula. 3. Experimental results
(§2) • (1) Medicaments: same as Embodiment 5; • (2) Other experimental materials were the same as those in Embodiment 3. 2. Experimental procedure: refer to Embodiment 3. 3. Experimental results
In general terms: Protection from cytopathic effect is a common read-out in antiviral testing.

For series [2], the system named is canine kidney epithelial cells (MDCK cells). The description is as above. The settings on record: MDCK cells, cytopathic changes. The method, then:
as §1, §2

The subject of series [3] is SARS-CoV-2 virus. Nature of the series: microbe, parasite or virus in culture.
Series [4] is described as follows: Toxicity to African green monkey kidney cells (Vero-E6), CCK-8, 48 hours. The settings on record: African green monkey. The source says: (§3) • (1) Medicaments: experimental group, tannic acid; control group, Remdesivir (purchased from Shanghai TopScience Technology Co., Ltd.); • (2) Cell line: African green monkey kidney cells (Vero-E6 cells); • (3) Others: MEM medium; 96-well culture plate. 2. […] 3. Experimental results
(§4) • (1) Medicaments: in the experimental group, tannic acid was mixed with catechin, resveratrol, and zinc gluconate according to a mass ratio of 1:1 to prepare into three pharmaceutical compositions; in the control group, Remdesivir (purchased from Shanghai TopScience Technology Co., Ltd.); • (2) Other experimental materials were the same as those in Embodiment 1. 2. Experimental steps: refer to Embodiment 1. 3. Experimental results

For series [5], the system named is African green monkey kidney cells (Vero-E6 cells). The description is as above. The following applies: Vero-E6 cells; for TC0 (maximum non-toxic concentration): 48 hours, CCK-8.
Description: as §3, §4

Series [6] relates to SARS-CoV-2 virus. The following applies: SARS-CoV-2, Vero-E6 cells; […].
The test system of another series is Influenza A H1N1 virus. Description: microbe, parasite or virus in culture. The settings on record: H1N1, MDCK.
[7] abbreviates: Severe acute respiratory syndrome coronavirus 2, Vero C1008, 48 h, read-out: IC50 (median inhibitory concentration).

Regarding `O=C(OC[C@H]1O[C@@H](OC(=O)c2cc(O)c(O)c(OC(=O)c3cc(O)c(O)c(O)c3)c2)[C@H](OC(=O)c2cc(O)c(O)c(OC(=O)c3cc(O)c(O)c(O)c3)c2)[C@@H](OC(=O)c2cc(O)c(O)c(OC(=O)c3cc(O)c(O)c(O)c3)c2)[C@@H]1OC(=O)c1cc(O)c(O)c(OC(=O)c2cc(O)c(O)c(O)c2)c1)c1cc(O)c(O)c(OC(=O)c2cc(O)c(O)c(O)c2)c1` [Tannic acid, tannic acid], in series [1], the CC50 stood at 752 µM. In addition, the “TC0 (maximum non-toxic concentration)” value came out at 376.21 µM in series [2] and 11.8 µM in series [5]. Also, in the series with SARS-CoV-2 virus [3] (setting [7]), the IC50 amounted to 0.0032 µM. Moreover, the CC50 at 48 h in series [4] came to 23.5 µM.

On to `CCC(CC)COC(=O)[C@H](C)N[P@](=O)(OC[C@H]1O[C@@](C#N)(c2ccc3c(N)ncnn23)[C@H](O)[C@@H]1O)Oc1ccccc1` [Remdesivir], for which the SI in the series with SARS-CoV-2 virus [6] was determined as 162.21. Moreover, the IC50 in the series with SARS-CoV-2 virus [3] (Severe acute respiratory syndrome coronavirus 2, Vero C1008) came to 0.392 ± 0.003 µg/mL. In the series with SARS-CoV-2 virus [3] (setting [7]), the IC50 was 0.651 ± 0.013 µM. The same molecule registered a CC50 at 48 h in series [4] of 106 µM. In series [5], the “TC0 (maximum non-toxic concentration)” value is 52.8 µM. In addition, in series [5] (compositions, mass ratio 1:1), the TC0 amounted to 31.816 µg/mL and the TC50 was determined as 63.633 µg/mL.

Regarding `NC(=O)c1ncn([C@@H]2O[C@H](CO)[C@@H](O)[C@H]2O)n1` [Ribavirin], the IC50 was determined as 22.6 ± 0.04 µM in the series on Influenza A H1N1 virus (48 h, read-out: IC50 (median inhibitory concentration)) and 5.52 ± 0.03 µg/mL in the series on Influenza A H1N1 virus (Influenza A H1N1, MDCK cells, compositions, mass ratio 1:1). The molecule further gave a CC50 in series [1] of 1310 µM.
